Legend:
spleen T cells = test: T cell proliferation inhibition (CFSE, FACS), CD3/CD28-activated spleen T cells; assay type: cell-based, C57BL/6 mice; details: Table 2, 3 days, relative to CD3/CD28+DMSO; for inhibition at 10 µM / inhibition at 30 µM / inhibition at 50 µM: Mus musculus, T-cell, 72 h, read-out: Proliferation inhibition rate (%)
Procedure: To investigate whether the compounds obtained in the Preparation Example have an inhibitory effect on T cell proliferation, the T cell proliferation was determined ex vivo using the fluorescent dye carboxyfluorescein diacetate succinimidyl ester (CFSE), which binds to intracellular molecules by covalent bonds.
Spleens were harvested and minced from C57BL/6 mice at 7 weeks of age, and then single cells were isolated using a strainer (40 μm pore size, SPL). Red blood cells were removed using ACK (Ammonium-Chloride-Potassium) lysis buffer to isolate only leukocytes. Subsequently, CD90.2 microbeads (130-121-278, Miltenyi Biotech.) were added, and subjected to react at 4° C. for 20 minutes. After that, spleen T cells were isolated using a MACS Magnetic Stand and LS column. The isolated T cells from the spleen were resuspended in 1 mL of Free media (RPMI-1640+200 U/mL penicillin+200 μg/mL streptomycin), followed by the addition of 0.3 μL of CFSE (10 mM), and reacted at 37° C. for 5 minutes. Subsequently, 10 mL of Free media was added to stop the reaction, and the cells were centrifuged to obtain the cell pellet. RPMI 1640 medium containing 10% FBS, 100 U/mL penicillin, and 100 μg/mL streptomycin was added to suspend the cells, and 2×10^5 cells per well were seeded into a 96-well plate and T cells were activated by treatment with CD3 and CD28 antibodies (each at 0.5 μg/mL).
The compound diluted in DMSO was treated in triplicate at concentrations of 10 μM, 30 μM, and 50 μM, respectively. After incubation at 37° C. with 5% CO2 for 3 days, cell proliferation levels were determined using a FACS Canto machine.
In the FACS graph of FIG. 1, the y-axis represents the quantity (number) of cells, while the x-axis represents the fluorescence level of the cells. […] This reduction in CFSE fluorescence results in a leftward shift along the x-axis in the graph. This indicates cell proliferation.
To collectively indicate the proliferation inhibition rate for the experimental results, the relative value of the proliferation amount after compound administration to the proliferation amount after CD3/CD28+DMSO administration was calculated. Subsequently, it was converted into an inhibition amount and expressed as a percentage, thereby determining the proliferation inhibition rate. Specifically, the proliferation inhibition rate was calculated as follows: […]

[1] = test system: T lymphocyte cell line Jurkat E6-1; test: Cytotoxicity experiment (CCK-8, relative cell survival); assay type: cell-based; details: 24 hours, untreated cells = 100%
Procedure: To evaluate the cytotoxicity of the compound according to the present invention, the following experiment was conducted.
The T lymphocyte cell line Jurkat E6-1, purchased from the Korean Cell Line Bank, was cultured in RPMI-1640 medium comprising 10% FBS, 100 U/mL penicillin, and 100 μg/mL streptomycin. After culturing, the cells were harvested and centrifuged at 1,300 rpm for 5 minutes. After removal of the supernatant, the cells were resuspended in the same medium at a concentration of approximately 2.2×10^5 cells/mL, and 90 μL of the cell suspension was distributed per well into a 96-well plate (Costar 96 well cell culture plate, Corning). After treating 10 μL of each compound at different concentrations onto the respective wells of the plate, it was cultured for 24 hours at 37° C. in a 5% CO2 incubator. Subsequently, 10 μL of CCK-8 was added to each well, and it was cultured again for 2 hours at 37° C. in a 5% CO2 incubator. Absorbance was then measured at 450 nm to determine the relative cell survival rate compared to untreated cells, as shown in Table 4.
The values listed in Table 4 represent the relative cell survival rates in the groups treated with each compound at different concentrations, with the cell survival rate of untreated cells set as 100%.

| SMILES | inhibition at 10 µM (spleen T cells; 10 μM) | inhibition at 30 µM (spleen T cells; 30 μM) | inhibition at 50 µM (spleen T cells; 50 μM) | Relative cell survival rate (%) ([1]; 10 μM) | Relative cell survival rate (%) ([1]; 20 μM) | Relative cell survival rate (%) ([1]; 30 μM) | Relative cell survival rate (%) ([1]; 50 μM) | Proliferation inhibition rate (%) (spleen T cells; 10 μM) | Proliferation inhibition rate (%) (spleen T cells; 30 μM) | Proliferation inhibition rate (%) (spleen T cells; 50 μM) |
| --- | --- | --- | --- | --- | --- | --- | --- | --- | --- | --- |
| CCCCCCCCCCCCNC(=O)c1ccccc1-c1ncc[nH]1 [Compound 52] | 42% | 95% | 100% | 88% | 85% | 84% | 84% | – | – | – |
| CCCCCCCCCCCCNC(=O)c1ccccc1C(=O)NC1CCCCC1 [Compound 53] | 22% | 65% | 85% | 96% | 97% | 98% | 95% | – | – | – |
| CCCCCCCCCCCCNS(=O)(=O)c1c(F)cccc1F [Compound 54] | 55% | 60% | 77% | 89% | 83% | 77% | 76% | – | – | – |
| CCCCCCCCCCCCNC(=O)c1ccc(F)c(F)c1F [Compound 55] | 52% | 82% | 95% | 115% | 110% | 108% | 105% | – | – | – |
| C=Cc1ccccc1C(=O)NCCCCCCCCCCCC [Compound 57] | 93% | 100% | 100% | 108% | 108% | 104% | 101% | – | – | – |
| CCCCCCCCCCCCNS(=O)(=O)c1ccccc1[N+](=O)[O-] [Compound 58] | 39% | 51% | 68% | 100% | 98% | 97% | 94% | – | – | – |
| CCCCCCCCCCCCNC(=O)c1ccccc1Oc1ccccc1 [Compound 61] | 16% | 86% | 98% | 96% | 94% | 76% | 74% | – | – | – |
| CCCCCCCCCCCCNC(=O)c1ccccc1I [Compound 63] | 30% | 78% | 89% | 70% | 78% | 75% | 79% | – | – | – |
| CCCCCCCCCCCCNC(=O)c1c(F)cccc1[N+](=O)[O-] [Compound 64] | 79% | 100% | 100% | 91% | 87% | 87% | 87% | – | – | – |
| CCCCCCCCCCCCNC(=O)c1ccccc1NC [Compound 65] | 39% | 43% | 77% | 87% | 84% | 86% | 77% | – | – | – |
| CCCCCCCCCCCCNC(=O)c1ncccc1N [Compound 67] | 35% | 88% | 100% | 94% | 93% | 93% | 92% | – | – | – |
| CCCCCCCCCCCCNC(=O)c1ccncc1N [Compound 68] | 57% | 67% | 100% | 92% | 91% | 88% | 82% | – | – | – |
| CCCCCCCCCCCCNC(=O)c1cccnc1O [Compound 70] | 29% | 78% | 98% | 119% | 122% | 124% | 125% | – | – | – |
| CCCCCCCCCCCCNC(=O)c1cnccc1N [Compound 71] | 100% | 100% | 100% | 101% | 94% | 92% | 88% | – | – | – |
| CCCCCCCCCCCCNC(=O)c1ncccc1Br [Compound 73] | 32% | 76% | 86% | 94% | 97% | 98% | 104% | – | – | – |
| CCCCCCCCNC(=O)c1cccnc1N [Compound 74] | 66% | 91% | 95% | 101% | 84% | 81% | 77% | – | – | – |
| CCCCCCCCCCCCNC(=O)c1cccnc1Br [Compound 76] | – | – | – | 115% | 95% | 92% | 70% | 36% | 49% | 65% |
